Measurements from the NIST ThermoML archive (doi:10.1016/j.fluid.2012.08.002).
± gives the expanded uncertainty stated by the source.

Assay: xn = mol fraction of the nth substance listed
Conditions: 101 kPa, Liquid; for speed of sound: Sing-around technique in a fixed-path interferometer; for mass density: Vibrating tube method

CCCCCCn1cc[n+](C)c1.[Br-] [3-hexyl-1-methyl-1H-imidazolium bromide] + COCCO
Conditions	mass density [kg/m3]	speed of sound [m/s]
288.15 K, x1 = 0.0541	1003.16 ± 0.14	1406.2 ± 0.88
288.15 K, x1 = 0.1114	1033.95 ± 0.14	1427.1 ± 0.9
288.15 K, x1 = 0.2063	1075.85 ± 0.16	1455 ± 0.94
288.15 K, x1 = 0.3163	1113.65 ± 0.19	1481.2 ± 0.98
288.15 K, x1 = 0.399	1136.61 ± 0.21	1498.5 ± 1
288.15 K, x1 = 0.5066	1160.88 ± 0.25	1518.9 ± 1.1
288.15 K, x1 = 0.5919	1177.15 ± 0.28	1532.1 ± 1.1
288.15 K, x1 = 0.7003	1194.68 ± 0.31	1550.1 ± 1.1
288.15 K, x1 = 0.8193	1210.88 ± 0.35	1578.5 ± 1.2
288.15 K, x1 = 0.905	1221.01 ± 0.39	1610.1 ± 1.2
293.15 K, x1 = 0.0541	998.827 ± 0.14	1389.9 ± 0.88
293.15 K, x1 = 0.1114	1029.8 ± 0.14	1411.5 ± 0.9
293.15 K, x1 = 0.2063	1071.89 ± 0.16	1440.2 ± 0.94
293.15 K, x1 = 0.3163	1109.92 ± 0.19	1467.3 ± 0.98
293.15 K, x1 = 0.399	1132.93 ± 0.21	1485.4 ± 1
293.15 K, x1 = 0.5066	1157.28 ± 0.25	1506 ± 1.1
293.15 K, x1 = 0.5919	1173.58 ± 0.27	1519.1 ± 1.1
293.15 K, x1 = 0.7003	1191.1 ± 0.31	1535.7 ± 1.1
293.15 K, x1 = 0.8193	1207.23 ± 0.35	1560 ± 1.2
293.15 K, x1 = 0.905	1217.37 ± 0.38	1584.7 ± 1.2
298.15 K, x1 = 0.0541	994.442 ± 0.14	1373.6 ± 0.87
298.15 K, x1 = 0.1114	1025.66 ± 0.14	1395.9 ± 0.89
298.15 K, x1 = 0.2063	1067.99 ± 0.16	1425.3 ± 0.93
298.15 K, x1 = 0.3163	1106.17 ± 0.19	1454 ± 0.98
298.15 K, x1 = 0.399	1129.03 ± 0.21	1472.5 ± 1
298.15 K, x1 = 0.5066	1153.7 ± 0.24	1493.4 ± 1.1
298.15 K, x1 = 0.5919	1169.99 ± 0.27	1506.4 ± 1.1
298.15 K, x1 = 0.7003	1187.69 ± 0.31	1521.9 ± 1.1
298.15 K, x1 = 0.8193	1203.66 ± 0.35	1543.4 ± 1.2
298.15 K, x1 = 0.905	1213.6 ± 0.38	1563.8 ± 1.2
303.15 K, x1 = 0.0541	990.104 ± 0.14	1357.4 ± 0.87
303.15 K, x1 = 0.1114	1021.6 ± 0.14	1380.5 ± 0.89
303.15 K, x1 = 0.2063	1064.1 ± 0.16	1410.7 ± 0.93
303.15 K, x1 = 0.3163	1102.4 ± 0.19	1440.7 ± 0.97
303.15 K, x1 = 0.399	1125.44 ± 0.21	1459.6 ± 1
303.15 K, x1 = 0.5066	1150.12 ± 0.24	1481 ± 1.1
303.15 K, x1 = 0.5919	1166.5 ± 0.27	1494.1 ± 1.1
303.15 K, x1 = 0.7003	1184.24 ± 0.3	1509.1 ± 1.1
303.15 K, x1 = 0.8193	1200.22 ± 0.35	1528.5 ± 1.2
303.15 K, x1 = 0.905	1210.1 ± 0.38	1545.7 ± 1.2
308.15 K, x1 = 0.0541	985.747 ± 0.14	1341.1 ± 0.86
308.15 K, x1 = 0.1114	1017.43 ± 0.14	1365.1 ± 0.89
308.15 K, x1 = 0.2063	1060.19 ± 0.16	1396.3 ± 0.92
308.15 K, x1 = 0.3163	1098.64 ± 0.18	1427.5 ± 0.97
308.15 K, x1 = 0.399	1121.85 ± 0.21	1446.7 ± 1
308.15 K, x1 = 0.5066	1146.54 ± 0.24	1468.7 ± 1.1
308.15 K, x1 = 0.5919	1162.92 ± 0.27	1482 ± 1.1
308.15 K, x1 = 0.7003	1180.7 ± 0.3	1496.7 ± 1.1
308.15 K, x1 = 0.8193	1196.79 ± 0.34	1514.7 ± 1.2
308.15 K, x1 = 0.905	1206.71 ± 0.37	1529.7 ± 1.2
313.15 K, x1 = 0.0541	981.397 ± 0.14	1324.9 ± 0.86
313.15 K, x1 = 0.1114	1013.1 ± 0.14	1349.9 ± 0.88
313.15 K, x1 = 0.2063	1056.1 ± 0.15	1382.4 ± 0.92
313.15 K, x1 = 0.3163	1094.88 ± 0.18	1414.3 ± 0.97
313.15 K, x1 = 0.399	1118.18 ± 0.2	1433.9 ± 1
313.15 K, x1 = 0.5066	1142.96 ± 0.24	1456.5 ± 1
313.15 K, x1 = 0.5919	1159.44 ± 0.26	1470.3 ± 1.1
313.15 K, x1 = 0.7003	1177.16 ± 0.3	1484.8 ± 1.1
313.15 K, x1 = 0.8193	1193.35 ± 0.34	1501.8 ± 1.2
313.15 K, x1 = 0.905	1203.34 ± 0.37	1515.2 ± 1.2
318.15 K, x1 = 0.0541	976.988 ± 0.15	1308.7 ± 0.85
318.15 K, x1 = 0.1114	1009.12 ± 0.14	1335.8 ± 0.88
318.15 K, x1 = 0.2063	1052.25 ± 0.16	1369.4 ± 0.92
318.15 K, x1 = 0.3163	1091.12 ± 0.18	1401.5 ± 0.96
318.15 K, x1 = 0.399	1114.51 ± 0.2	1421.1 ± 1
318.15 K, x1 = 0.5066	1139.37 ± 0.23	1444.5 ± 1
318.15 K, x1 = 0.5919	1155.95 ± 0.26	1458.7 ± 1.1
318.15 K, x1 = 0.7003	1173.69 ± 0.3	1473.2 ± 1.1
318.15 K, x1 = 0.8193	1189.89 ± 0.34	1489.7 ± 1.2
318.15 K, x1 = 0.905	1199.95 ± 0.37	1501.9 ± 1.2
